# According to patent US20240209456A1, “METHODS AND COMPOSITIONS RELATED TO CELL-CYCLE RNA's” (BETH ISRAEL DEACONESS MEDICAL CENTER, priority 2021, published 2024):
# *1 amine or outer side, *2 acyl side, *3 side chain or, on linkers, in order; H or OH if unused. Where a SMILES comes first, the peptide text is derived from it. Bridges are numbered along the chain shown (N, C = ends). Roman numbers before positions name the chains, in order. [ ]: non-standard residue; d: D form. Actinocin(9to1) = Cc1c2oc3c(C)ccc(C(=O)[*:1])c3nc-2c(C(=O)[*:2])c(N)c1=O; NMeV = CN[C@H](C(=O)O)C(C)C; Sar = CNCC(=O)O
# Tests used:
# [1] = tested on: acH2A.Z; assay: ChIP-Seq with acH2A.Z antibody, occupancy at TSSs; type: cell-based, human; conditions: for number of TSS with at least / greater than 2-fold drop in acH2A.Z occupancy: HL-60, 2 hr treatment, vs cells without treatment, 38,512 TSS compared; for acH2A.Z enrichment at the TSS, genome-wide / acH2A.Z peak intensity ratio, MYB locus (DMSO = 0.62, ActD = 1.0) / acH2A.Z peak intensity ratio, PU.1 locus (DMSO = 1.0) / acH2A.Z peak intensity ratio, c-MYC locus (DMSO = 1): HL-60, 2 hr; for acH2A.Z enrichment at the TSS, genome-wide: vs mock-treated (DMSO), FIG. 4C; for acH2A.Z peak intensity ratio, MYB locus (DMSO = 0.62, ActD = 1.0) / acH2A.Z peak intensity ratio, PU.1 locus (DMSO = 1.0) / acH2A.Z peak intensity ratio, c-MYC locus (DMSO = 1): [DMSO/DRB/ActD]
# Excerpt: Two transcription inhibitors, Actinomycin D (ActD; RNA Polymerase I, II and III inhibitor) and 5,6-Dichlorobenzimidazole 1-β-D-ribofuranoside (DRB; RNAPII Inhibitor), were used at concentrations sufficient to block both RNA Polymerases II and III. Cells were synchronized with a double thymidine block and released into S Phase with ActD/DRB added. The rationale behind the use of ActD and DRB is: (i) to globally assess the effect of SPEARs suppression over a short time frame; (ii) to test effects resulting from the two different pathways triggered by ActD and DRB; and (iii) to take advantage of the reversibility of DRB treatment. […] Two hours after drug treatment, cells were crosslinked and subjected to ChIP-Seq analyses. […] Relative changes were then investigated in the footprints of unmodified H2A.Z and acH2A.Z in the vicinity of TSSs that result from DRB- and ActD-induced inhibition of SPEARs. The enrichments of ChIP-Seq signals for H2A.Z and acH2A.Z around 38,512 TSS (defined in the hg38 UCSC canonical gene table) following drug treatment were then compared with their occupancy in mock-treated (DMSO) cells. […] ActD-treated cells followed this pattern with a greater than 2-fold decrease in the levels of acH2A.Z at 6,283 TSS compared to untreated samples. […] For the c-MYC and PU1 loci, respectively, the ratios of control (DMSO) to drug treated H2A.Z peak intensities were: [DMSO/DRB/ActD]^c-MYC=1/0.76/0.67 and [DMSO/DRB/ActD]^PU.1=1/0.87/0.82; and the ratios of control (DMSO) to drug treated acH2A.Z peak intensities were: [DMSO/DRB/ActD]^c-MYC=1/0.62/0.36 and [DMSO/DRB/ActD]^PU.1=1.0/0.25/0.13. […] For MYB the ratios of control (DMSO) to drug treated acH2A.Z peak intensities are: [DMSO/DRB/ActD]^MYB=0.62/0.89/1.0, which corresponds to the increases in its SPEARs levels (FIG. 10C).
# Double Thymidine block (early S-phase block) was carried out as described. Briefly, HL-60 cells were grown overnight to 70-80% confluence, washed twice with 1×PBS and cultured in DMEM (10% FCS)+2.5 mM Thymidine for 18 h (first block). Thymidine was washed out with 1×PBS and cells were grown in DMEM (10% FCS). After 8 hrs cells were cultured in the presence of thymidine for 18 h (second block) and then released as described. Synchrony was monitored by flow cytometry analysis of propidium iodide-stained cells using a LSRII flow cytometer (BD Biosciences) at the Harvard Stem Cell Institute/Beth Israel Deaconess Center flow cytometry facility.
# DRB and Actinomycin D treatments were carried out as described. Briefly, after release from double thymidine block, HL-60 cells were treated with 100 μM of 5,6-Dichlorobenzimidazole 1-β-D-ribofuranoside (DRB) (Sigma Aldrich) or 0.8 μM of Actinomycin D (Sigma Aldrich) as indicated at each time point.
# ChIP was performed as follows. Cells were crosslinked with 1% formaldehyde for 10 min at r.t. Pellets of 1×10^6 cells were used for immunoprecipitation and lysed for 10 minutes on ice and chromatin fragmented using a Branson 250 digital sonicator. Each ChIP was performed with 4 ug of antibody, incubated overnight at 4° C. A 50/50 slurry of protein A and protein G Dynabeads was used to capture enriched chromatin, which was then washed before reverse-crosslinking and proteinase K digestion at 65° C. AMPure XP beads were used to clean up and isolate ChIP DNA for subsequent library construction. The following antibodies were used for ChIP: H2A.Z (Abcam ab4174, lot GR3176820-1), acH2A.Z (Abcam ab18262, lot GR306397-1), TIP60 antibody; and IgG (Abcam ab171870). Fold enrichment was calculated using the formula 2^(−ΔΔCt(ChIP/non-immune serum)). Primer sets used for ChIP are listed in Table 2. nRIP was performed and crosslinked nuclei were collected as follows: 1. 60×10^6 HL-60 cells were crosslinked with 1% formaldehyde (formaldehyde solution, freshly made: 50 mM HEPES-KOH; 100 mM NaCl; 1 mM EDTA; 0.5 mM EGTA; 11% formaldehyde) for 10 min at room temperature. […]
# [2] = tested on: PU.1 SPEARs; assay: qRT-PCR / strand-specific qRT-PCR of PU.1 SPEARs; type: cell-based, human; conditions: HL-60, DRB and ActD, FIG. 10C
# Experimental: Total RNA isolation was carried out and all RNA samples used in this study were treated with DNase I (10 U of DNase I per 3 μg of total RNA; 37° C. for one hour; in the presence of RNase inhibitor). After DNase I treatment, RNA samples were extracted with acidic phenol (pH 4.3) to eliminate any remaining traces of DNA. cDNA syntheses were performed with Random Primers (Invitrogen) or gene-specific primers with Transcriptor Reverse Transcriptase (Roche Applied Science) according to the manufacturer's recommendation. cDNA was purified with a High Pure PCR Product Purification Kit (Roche Applied Science).
# Sybr green reaction was performed using iQ Sybr Green supermix (Biorad, Hercules, CA) using the following parameters: 95° C. (10 min), 40 cycles of 95° C. (15 s) and 60° C. (1 min) 72° C. (1 min). TaqMan analysis was performed using Hotstart Probe One-step qRT-PCR master mix (USB) at the following conditions: 50° C. (10 min.), 95° C. (2 min.), and then 40 cycles of 95° C. (15 sec.) and 60° C. (60 sec.). […]
smiles,measurement,setting,value
"OC[C@H]1O[C@@H](n2cnc3cc(Cl)c(Cl)cc32)[C@H](O)[C@@H]1O [DRB, 5,6-Dichlorobenzimidazole 1-β-D-ribofuranoside]",number of TSS with at least / greater than 2-fold drop in acH2A.Z occupancy,[1],"3,394 TSS"
same,"acH2A.Z enrichment at the TSS, genome-wide",[1],drastic reduction
same,"acH2A.Z peak intensity ratio, MYB locus (DMSO = 0.62, ActD = 1.0)",[1],0.89
same,"acH2A.Z peak intensity ratio, PU.1 locus (DMSO = 1.0)",[1],0.25
same,"acH2A.Z peak intensity ratio, c-MYC locus (DMSO = 1)",[1],0.62
same,PU.1 SPEARs level upon transcription inhibitors,[2],negatively affected
"Cc1c2oc3c(C)ccc(C(=O)N[C@@H]4C(=O)N[C@H](C(C)C)C(=O)N5CCC[C@H]5C(=O)N(C)CC(=O)N(C)[C@@H](C(C)C)C(=O)O[C@@H]4C)c3nc-2c(C(=O)N[C@@H]2C(=O)N[C@H](C(C)C)C(=O)N3CCC[C@H]3C(=O)N(C)CC(=O)N(C)[C@@H](C(C)C)C(=O)O[C@@H]2C)c(N)c1=O [ActD, Actinomycin D] (I: T[dV]P[Sar][NMeV] / II: T[dV]P[Sar][NMeV]; ester I:1-I:C, II:1-II:C; linker I:N-II:N via Actinocin(9to1))",number of TSS with at least / greater than 2-fold drop in acH2A.Z occupancy,[1],"6,283 TSS"
same,"acH2A.Z enrichment at the TSS, genome-wide",[1],drastic reduction
same,"acH2A.Z peak intensity ratio, MYB locus (DMSO = 0.62, ActD = 1.0)",[1],1.0
same,"acH2A.Z peak intensity ratio, PU.1 locus (DMSO = 1.0)",[1],0.13
same,"acH2A.Z peak intensity ratio, c-MYC locus (DMSO = 1)",[1],0.36
same,PU.1 SPEARs level upon transcription inhibitors,[2],negatively affected
